Here are results for five substances from ChEMBL document CHEMBL5046216, “Disrupting Tryptophan in the Central Hydrophobic Region Selectively Mitigates Immunomodulatory Activities of the Innate Defence Regulator Peptide IDR-1002” (J Med Chem, 2021).

Series [1] is described as follows: Retention time of the compound by HPLC analysis. It is filed as physicochemical.
The test system of series [2] is HBEC3-KT. Kind of series: Cytotoxicity against human HBEC3-KT incubated for 24 hrs by LDH assay. The format is functional.
In series [3] the test system is HBEC3-KT. Kind of series: Antiinflammatory activity in human HBEC3-KT cells assessed as effect on MCP1 expression measured after 24 hrs by ELISA relative to control. It is filed as functional, cell-based. For orientation: In an ELISA, binding on a coated surface is turned into a signal by an enzyme label.
The test system of series [4] is HBEC3-KT. The series is described as follows: Immunomodulatory activity in human HBEC3-KT cells assessed as suppression of INFgamma-induced IL-33 at 10 uM preincubated for 30 mins followed by INFgamma stimulation and measured after 24 hrs by Western blot analysis. The format is functional. The following applies: 0.5 h. Background: Immunoblotting shows a protein as a band on a membrane.

Series [5] deals with HBEC3-KT. Kind of series: Antiinflammatory activity in INFgamma-induced MCP1 expressed in human HBEC3-KT cells assessed as fold change measured after 24 hrs by ELISA relative to control. It is filed as functional.
The test system of series [6] is HBEC3-KT. Kind of series: Antiinflammatory activity in human HBEC3-KT cells assessed as fold increase in STC1 expression at 10 uM measured after 24 hrs by ELISA relative to control. The format is functional.
Series [7] relates to HBEC3-KT. Kind of series: Antiinflammatory activity in human HBEC3-KT cells assessed as fold increase in IL-1RA expression at 10 uM measured after 24 hrs by ELISA relative to control. It is filed as functional.

Active and inactive are the calls of the source. The rule behind the calls is not given here.

As for H-VQRWLIVWRIWK-OH, the Retention_time in series [1] was found to be 18.47 min. The Activity in the series with HBEC3-KT [2] is recorded as 50%.

H-VQRWLIVIRIRK-OH: the Retention_time in series [1] is 14.48 min. For the same substance, in the series on HBEC3-KT [2], the Activity is given as 50%.

Take H-VRRWLIVWRIRK-OH: in the series with HBEC3-KT [3], the result was inactive. This substance also came in with a Retention_time in series [1] of 16.06 min. For the same substance, the Activity result in the series on HBEC3-KT [2] was “<=15%”; with HBEC3-KT [4] it was 70%. Besides, the entries for the “fold change (FC)” value with HBEC3-KT [5], in the series with HBEC3-KT [6] and in the series with HBEC3-KT [7] were 2.9, 6 and 2.6, respectively.

In series [1], H-VQRWLIVWVIRK-OH returned a Retention_time of 18.05 min. In the series on HBEC3-KT [2], this substance gave an Activity of 50%.

Consider H-VLRWLIVWRIRK-OH, for which the Retention_time in series [1] worked out at 17.4 min. Besides, the Activity with HBEC3-KT [2] stood at 50%.
